# Data: patent US20110318768A1, “METHOD FOR DETERMINING SENSITIVITY OF TUMOR CELLS TO TYROSINE KINASE INHIBITOR AND COMPUTER PROGRAM PRODUCT” (SYSMEX CORPORATION, priority 2010, published 2011)
# Tests used:
# [1] = tested on: tyrosine kinase in measurement samples of lapatinib-insensitive cell line group; experiment: Tyrosine kinase activity inhibition, group comparison (FIG. 3); assay type: biochemical
# Protocol: (§1) After shaking the measuring plate at 37° C. and 400 rpm for 60 minutes, the solution was removed from the measuring plate, and the wells were washed with 300 μl of TBS-T three times. 100 μl of Starting Block T20 (TBS) (#37543: Pierce) as a blocking solution was added to the wells, followed by blocking at 37° C. and 400 rpm for 10 minutes. The blocking solution was removed from the measuring plate. 100 μl of a solution prepared by diluting HRP-labeled anti-phosphorylated tyrosine antibody (#sc-508 HRP: Santa Cruz) with Starting Block T20 (TBS) at a ratio of 1:1000 was added to the wells, followed by shaking at 37° C. and 400 rpm for 90 minutes. Then, the wells were washed with 300 μl of TBS-T five times. […] Thereafter, the emission from the wells was measured by a GENios microplate reader (manufactured by Tecan Trading AG). The inhibitory capacity of the kinase inhibitors in the measurement sample was evaluated by an inhibition rate (value of “100−{(measurement value of activity in the presence of inhibitors)/(measurement value of activity in the absence of inhibitors)}×100”) calculated base on a ratio of the measurement value of tyrosine kinase activity in the presence of the inhibitors and the measurement value of the control (in the absence of the inhibitors). […]
# [2] = tested on: tyrosine kinase in measurement samples of lapatinib-sensitive cell line group; experiment: as above; assay type: biochemical
# Protocol: as §1
# [3] = tested on: tyrosine kinase of MDA-MB231; conditions: US 2011027809; cited from earlier work
structure (smiles),measurement,setting,value
"COc1cc2ncnc(Nc3ccc(Oc4ccccc4)cc3)c2cc1OC [Inhibitor 10, 4-(4′-phenoxyanilino)-6,7-dimethoxyquinazoline]",inhibitory effect of the Src inhibitor on the kinase activity,[1],high
same,inhibitory effect of the Src inhibitor on the kinase activity,[2],low
same,tyrosine kinase activity inhibitory effects caused by the Src inhibitor,[3],low
